Experimental data from paper PMC10488051, “Screening, Synthesis and Biochemical Characterization of SARS-CoV-2 Protease Inhibitors” (International Journal of Molecular Sciences, 2023).

Molecular target: mutant PL^proC111S (Severe acute respiratory syndrome coronavirus 2, UniProt P0DTD1, C1674S)
Assay type: binding, SARS-CoV-2

Nc1ccccc1SSc1ccccc1N [Compound 32]
Thermal effect (Tm) on mutant PL^proC111S: but not the mutant PL^proC111S
